Test results: article PMC3568144, “Pseudomonas aeruginosa PA1006 Is a Persulfide-Modified Protein That Is Critical for Molybdenum Homeostasis” (PLoS ONE, 2013)

Legend:
His6-PA3667/CsdA [1] = biological target: T1, His6-PA3667/CsdA (Pseudomonas aeruginosa, UniProt Q9HXX3); test: […] transfer to the enzyme, non-reducing SDS-PAGE with phosphorimaging; assay type: biochemical; conditions: labelled compound; 50 µM 35S Cys, 2 µM enzyme, pH 7.5, 37°C, 10 min
T1 construct: gene csd; full length, His6 tag kept, pET24D, E. coli BL21pLysS, Ni-NTA and MonoQ; dimer (~100 kDa) by gel filtration
T1 sequence (Q9HXX3 1-401): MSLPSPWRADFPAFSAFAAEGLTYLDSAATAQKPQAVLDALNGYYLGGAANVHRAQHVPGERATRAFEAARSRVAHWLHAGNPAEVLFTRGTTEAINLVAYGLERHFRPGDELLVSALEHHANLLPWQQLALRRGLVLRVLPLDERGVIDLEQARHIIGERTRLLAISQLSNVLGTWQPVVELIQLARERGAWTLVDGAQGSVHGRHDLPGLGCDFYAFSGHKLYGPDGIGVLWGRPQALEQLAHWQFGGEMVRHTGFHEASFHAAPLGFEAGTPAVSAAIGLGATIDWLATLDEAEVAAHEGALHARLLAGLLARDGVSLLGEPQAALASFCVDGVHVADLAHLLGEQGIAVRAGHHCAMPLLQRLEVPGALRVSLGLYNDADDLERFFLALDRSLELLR

His6-PA3667/CsdA [2] = biological target: T1, His6-PA3667/CsdA; test: absorption spectrum of purified enzyme (~[…] nm band, reducible with sodium borohydride); assay type: binding; conditions: 100 µM cofactor in purification and storage buffers
[3] = biological target: the molecule itself; test: SEC; analytical gel filtration, Superose 6 column (GE Life Sciences), FPLC

Molecule: N[C@@H](CS)C(=O)O [Cys]
- 35S transfer to the enzyme, non-reducing SDS-PAGE with phosphorimaging (His6-PA3667/CsdA [1]): PA3667/CsdA displayed Cys desulfurase activity and was capable of transferring

Molecule: Cc1ncc(COP(=O)(O)O)c(C=O)c1O [pyridoxal phosphate]
- absorption spectrum of purified enzyme (~400 nm band, reducible with sodium boro) (His6-PA3667/CsdA [2]): absorbance spectrum of His6-PA3667/CsdA indicated that it contained a pyridoxal phosphate cofactor

B1: His6-PA3667/CsdA purified from E. coli (enzyme, Pseudomonas aeruginosa, UniProt Q9HXX3 1-401, looked up)
chain: MSLPSPWRADFPAFSAFAAEGLTYLDSAATAQKPQAVLDALNGYYLGGAANVHRAQHVPGERATRAFEAARSRVAHWLHAGNPAEVLFTRGTTEAINLVAYGLERHFRPGDELLVSALEHHANLLPWQQLALRRGLVLRVLPLDERGVIDLEQARHIIGERTRLLAISQLSNVLGTWQPVVELIQLARERGAWTLVDGAQGSVHGRHDLPGLGCDFYAFSGHKLYGPDGIGVLWGRPQALEQLAHWQFGGEMVRHTGFHEASFHAAPLGFEAGTPAVSAAIGLGATIDWLATLDEAEVAAHEGALHARLLAGLLARDGVSLLGEPQAALASFCVDGVHVADLAHLLGEQGIAVRAGHHCAMPLLQRLEVPGALRVSLGLYNDADDLERFFLALDRSLELLR
notes: PA3667/CsdA, cysteine desulfurase, Pseudomonas aeruginosa; Contains a pyridoxal phosphate cofactor; 100 µM pyridoxal phosphate was added to the buffers; source: E. coli BL21pLysS (pET24D), purified (Ni2+-NTA agarose, MonoQ)
- stoichiometry N [3]: 2
